Read-outs that look alike come from different tables or passages of the source.
Experiments:
[1] = tested on: L. infantum promastigotes; experiment: Antileishmanial activity on L. infantum promastigotes (MTT); type: cell-based; conditions: Leishmania infantum, 72 h, 23 °C, MTT, read-out: Leishmania Promastigotes IC50, L. infantum
Experimental: Promastigote stage of L. infantum (MHOM/TN/80/IPT1, kindly provided by Dr. M. Gramiccia and Dr. T. Di Muccio, ISS, Roma) and L. tropica (MHOM/SY/2012/ISS3130) were cultured in RPMI 1640 medium (EuroClone) supplemented with 15% heat-inactivated fetal calf serum (EuroClone, Milan, Italy), 20 mM HEPES, and 2 mM L-glutamine at 23 °C. The MTT (3-[4.5-dimethylthiazol-2-yl]-2.5-diphenyltetrazolium bromide) method was used to estimate the 50% inhibitory concentration (IC50), with some modifications. Compounds were dissolved in DMSO and then diluted with medium to achieve the required concentrations. Test compounds were placed in 96 wells round bottom microplates and seven serial dilutions made. Amphotericin B was used as the reference antileishmanial drug. Parasites were diluted in complete medium to 5 × 10^6 parasites/mL and 100 μL of the suspension was seeded into the plates and incubated at 23 °C for 72 h. Then 20 μL of MTT solution (5 mg/mL) was added into each well, after 3 h the plates were centrifuged, the supernatants discarded and the resulting pellets dissolved in 100 μL of lysing buffer consisting of 20% (w/v) of a solution of SDS (Sigma), 40% of N,N-dimethylformamide (Merck) in H2O. The absorbance of the obtained solutions was measured at a wavelength of 550 nm with a reference at 650 nm with a microplate spectrophotometer (Synergy 4-Biotek, Milan, Italy) and analyzed with the Gen5® software for data processing.
The results are expressed as IC50, the dose of compound that is necessary to inhibit cell growth by 50%; each IC50 value is the mean ± standard deviation of at least three separate experiments performed in duplicate.

[2] = tested on: L. infantum promastigotes; experiment: Morphological differentiation of Leishmania promastigotes; type: cell-based, Leishmania infantum; conditions: 50 ng/mL, 23 °C, 48 h (Figure 6)
Experimental: L. infantum promastigotes were diluted in complete medium to 4 × 10^7 parasites/mL and 250 µL of the suspension were seeded into the 24 wells plates and incubated at 23 °C in the presence of geldanamycin, CE or compound 2 at the final concentration of 50 ng/mL. Cultures without drugs incubated at 23 °C or at 37 °C were used as negative and positive control, respectively. After 24 or 48 h of incubation, parasite morphology was evaluated by optical microscopy at 100× (Eclipse Ti Series, Nikon, Minato, Tokyo, Japan) on Giemsa stained smears (a mixture of eosin, methylene blue and Azure-B diluted 1:10). The percent of round promastigotes in treated and non-treated cells was determined. Images were taken at the same magnification by using a digital camera (Nikon Digital Sight). About 500 promastigotes were counted in 4 random fields.
The compounds were incubated (23 °C, physiological pH) with L. infantum promastigotes at a sub-IC50 concentration of 50 ng/mL. […] After 24 h and 48 h the presence of round, amastigote-like cells, was monitored (Figure 6). A negative and positive control experiment (NC and PC, Figure 6a,b) were also conducted growing the promastigotes at 23 °C and 37 °C, respectively.

[3] = biological target: LbHsp90 (Leishmania braziliensis, UniProt A4HL70); experiment: LbHsp90 ATPase kinetics (NADH-coupled enzymatic cascade); type: biochemical
Chain of LbHsp90 (A4HL70 entry or part of it): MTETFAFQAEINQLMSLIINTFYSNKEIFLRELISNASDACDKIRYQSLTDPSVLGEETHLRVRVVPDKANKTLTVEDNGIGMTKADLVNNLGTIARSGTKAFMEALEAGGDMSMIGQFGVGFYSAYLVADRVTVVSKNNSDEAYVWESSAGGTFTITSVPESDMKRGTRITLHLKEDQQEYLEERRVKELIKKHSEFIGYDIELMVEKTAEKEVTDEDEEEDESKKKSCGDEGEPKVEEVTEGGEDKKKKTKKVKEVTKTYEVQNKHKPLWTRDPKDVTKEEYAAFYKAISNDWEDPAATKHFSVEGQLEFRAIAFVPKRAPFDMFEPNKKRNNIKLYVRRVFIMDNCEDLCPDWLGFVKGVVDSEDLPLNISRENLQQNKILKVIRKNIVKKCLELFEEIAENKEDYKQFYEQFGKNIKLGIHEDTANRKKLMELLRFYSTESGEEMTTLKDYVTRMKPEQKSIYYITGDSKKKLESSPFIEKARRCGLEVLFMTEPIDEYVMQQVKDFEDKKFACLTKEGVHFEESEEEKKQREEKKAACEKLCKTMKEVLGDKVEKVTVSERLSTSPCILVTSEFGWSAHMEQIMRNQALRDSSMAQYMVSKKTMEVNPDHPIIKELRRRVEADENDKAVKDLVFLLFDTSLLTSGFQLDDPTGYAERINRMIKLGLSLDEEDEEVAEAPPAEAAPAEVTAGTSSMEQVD
Experimental: The reaction was initiated by the addition of ATP (1 mM) and absorbance changes at 346 nm were monitored for 30 min at 30 °C.
Native LbHsp90 kinetics was measured as described but in the absence of DMSO. Two control experiments were run as follows: • (1) Efficiency of the enzymatic cascade by the used compounds: HEPES buffer (20 mM, pH 7.5) containing KCl (100 mM), MgCl2 (1 mM), ADP (1 mM), NADH (0.18 mM), L-lactate dehydrogenase (4 U mL^−1), phosphoenolpyruvate (1 mM), pyruvate kinase (2.5 U mL^−1); • (2) Interference of the tested compound(s) with the enzymatic cascade: HEPES buffer (20 mM, pH 7.5) containing KCl (100 mM), MgCl2 (1 mM), ADP (1 mM), NADH (0.18 mM), L-lactate dehydrogenase (4 U mL^−1), phosphoenolpyruvate (1 mM), pyruvate kinase (2.5 U mL^−1) and 50 μM compound.
Accordingly, an in vitro assay developed for the evaluation of non-competitive allosteric modulators, which exploits ATPase kinetics data, was used. Briefly, the decrease in absorbance deriving from the continuous oxidation of NADH to NAD^+ produced by a multi-enzymatic cascade triggered by LbHp90-catalyzed ATP hydrolysis is followed spectrophotometrically over the course of 15 min (for details see Appendix B). All the experiments were normalized using the native ATPase activity of LbHsp90 measured in the presence of DMSO, the co-solvent selected for compounds solubilization.
Figure A1 Enzymatic cascade reactions to spectroscopically evaluate L. Hsp90 ATPase kinetics. The ADP produced by ATP hydrolysis during the chaperone cycle reacts with PEP (phosphoenolpyruvate) to form pyruvate in a reaction catalyzed by the enzyme pyruvate kinase (PK), whereby ATP is regenerated. Pyruvate then continues the cascade process and is reduced to lactic acid by action of lactate dehydrogenase (LDH), whereby NADH is oxidized to NAD^+.
LbHsp90 inhibition (%) = (1 − k/knative) * 100 k = ΔAbs/min = extrapolated apparent kinetic constant (Abs/min)

With `COC1=C2C[C@@H](C)C[C@H](OC)[C@H](O)[C@@H](C)/C=C(\C)[C@H](OC(N)=O)[C@@H](OC)/C=C\C=C(/C)C(=O)NC(=CC1=O)C2=O` [GA, geldanamycin] as the compound, how does the IC50 [1] read?
Its IC50 is 140 ± 40 nM.

What about the “round amastigote-like cells (morphological differentiation)” value [2] of the same compound?
Its value is roughly 40%.

What about the inhibition at 10 µM ([3]; GA dose-response, 10 μM) of the same compound?
The inhibition at 10 µM was 0.1 ± 0.02%.

What about the inhibition at 15 µM ([3]; GA dose-response, 15 μM) of the same compound?
The inhibition at 15 µM was 0.2 ± 0.05%.

What about the inhibition at 20 µM ([3]; GA dose-response, 20 μM) of the same compound?
The inhibition at 20 µM was 0.3 ± 0.08%.

And the inhibition at 50 µM ([3]; GA dose-response, 50 μM, read-out: LbHsp90 Inhibition (%))?
The inhibition at 50 µM was 0.7 ± 0.04%.

And the inhibition at 100 µM ([3]; GA dose-response, 100 μM)?
Its inhibition at 100 µM is 6.5 ± 0.9%.

What about the inhibition at 200 µM ([3]; GA dose-response, 200 μM) of the same compound?
The inhibition at 200 µM was 30.7 ± 1.2%.

What about the inhibition at 400 µM ([3]; GA dose-response, 400 μM) of the same compound?
The inhibition at 400 µM was 52.3 ± 0.8%.

And the inhibition at 600 µM ([3]; GA dose-response, 600 μM)?
The inhibition at 600 µM was 76.9 ± 3%.

What about the inhibition at 800 µM ([3]; GA dose-response, 800 μM) of the same compound?
Its inhibition at 800 µM is 90.5 ± 2.5%.

And the inhibition at 1000 µM ([3]; GA dose-response, 1000 μM (1 mM), 1 mM ATP)?
Its inhibition at 1000 µM is 99 ± 0.9%.

And the inhibition at 1200 µM ([3]; GA dose-response, 1200 μM)?
Its inhibition at 1200 µM is greater than 99%.

And the inhibition at 50 µM ([3]; read-out: LbHsp90 Inhibition (%), compound 50 μM, 3.5 μM LbHsp90, 1 mM ATP)?
Its inhibition at 50 µM is less than 0.05%.

Source: paper PMC7824787, “Design, Synthesis and In Vitro Investigation of Novel Basic Celastrol Carboxamides as Bio-Inspired Leishmanicidal Agents Endowed with Inhibitory Activity against Leishmania Hsp90” (Biomolecules, 2021)
